For this series the following is noted: Crystal; Phase equilibration.

This passage reports Normal melting temperature results from the NIST ThermoML archive (doi:10.1016/j.fluid.2013.02.001).

Each structure is given as a SMILES string. Numbers after ± are expanded uncertainties.

With `O=C([O-])CCP(=O)(O)c1ccccc1.[Na+]` [monosodium 3-(hydroxyphenylphosphinyl)propanoate], the Normal melting temperature came out at 231 ± 0.7 °C.
